The record followed here is paper PMC6522510 (Nature Communications, 2019).

Holding throughout (set-up): species or system AML cell lines (8); Primary HTS, single concentration about 10 uM, Cell Titer Glo viability; log10 luminescence, per cent inhibition relative to cycloheximide control
What all share (settings): 72 h, relative to cycloheximide control, log10 luminescence; inhibitor

Experiment [1] deals with M07e.
For experiment [2], the system named is CMK.
In experiment [3] the test system is CMS.
For experiment [4], the system named is MOLM-13.
Experiment [5] has as its system U937.
Experiment [6] relates to CHRF288-11.
For experiment [7], the system named is MV4-11.
In experiment [8] the test system is ML-2.

Take `COC(=O)CCCC1=CC2=CC(=O)C(C)(OC(=O)c3cccs3)C(=O)C2=CN1C1CCCCC1` (stereo not drawn) [SJ000579837-1]: the M07e %inh in experiment [1] is reported as -0.3619%. In experiment [2], the CMK %inh stood at 6.006%. Moreover, the CMS %inh in experiment [3] is -0.4009%. In experiment [4], the MOLM-13 %inh worked out at 2.949%. Besides, in experiment [5], the U937 %inh came out at 1.516%. Moreover, the CHRF288-11 %inh in experiment [6] came to 2.103%. Also, the MV4-11 %inh in experiment [7] came out at 0.3457%. Also, in experiment [8], the ML-2 %inh was 1.343%.
As for `COc1ccc(C2=CC3=C(Br)C(=O)C(C)(O)C(=O)C3=CO2)cc1` (stereo not drawn) [SJ000580186-1], the M07e %inh in experiment [1] was 0.3527%. The CMK %inh in experiment [2] is -1.841%. For the same molecule, the CMS %inh in experiment [3] is listed as -0.7753%. The MOLM-13 %inh in experiment [4] was 3.615%. Also, the U937 %inh in experiment [5] is 1.575%. Besides, the CHRF288-11 %inh in experiment [6] is recorded as -2.02%. The MV4-11 %inh in experiment [7] is listed as 1.031%. For the same molecule, the ML-2 %inh in experiment [8] is -0.5513%.
`CC1(OC(=O)C2CCCC2)C(=O)C=C2C=C(c3ccsc3)OC=C2C1=O` (stereo not drawn) [SJ000580213-1]: in experiment [1], the M07e %inh is on record as -2.766%. In experiment [2], the CMK %inh was 0.9758%. In addition, in experiment [3], the CMS %inh stood at 3.861%. Besides, the MOLM-13 %inh in experiment [4] is 3.751%. The U937 %inh in experiment [5] is listed as 2.696%. Also, in experiment [6], the CHRF288-11 %inh amounted to 1.734%. The MV4-11 %inh in experiment [7] is 0.3204%. Further, the ML-2 %inh in experiment [8] is listed as -0.1394%.
Turning to `CC1(OC(=O)c2cccs2)C(=O)C=C2C=C3CCCN3C=C2C1=O` (stereo not drawn) [SJ000580493-1], in experiment [1], the M07e %inh is given as 2.009%. Further, the CMK %inh in experiment [2] stood at 4.862%. For the same molecule, the CMS %inh in experiment [3] is 2.99%. For the same molecule, the MOLM-13 %inh in experiment [4] is on record as -0.7413%. For the same molecule, the U937 %inh in experiment [5] was 1.415%. Besides, the CHRF288-11 %inh in experiment [6] was 4.124%. The MV4-11 %inh in experiment [7] was determined as 2.091%. In addition, the ML-2 %inh in experiment [8] was -0.6831%.
For the molecule `COc1ccc(O)c(C(=O)c2ccc(C(=O)O[C@@H]3CCCNC[C@H]3NC(=O)c3ccncc3)cc2)c1F` [SJ000580951-1], the M07e %inh in experiment [1] was 15.86%. Moreover, in experiment [2], the CMK %inh is 131.3%. Moreover, the CMS %inh in experiment [3] was 13.47%. Moreover, the MOLM-13 %inh in experiment [4] came out at 81.23%. The U937 %inh in experiment [5] stood at 74.66%. Further, the CHRF288-11 %inh in experiment [6] was 109.9%. The MV4-11 %inh in experiment [7] came to 68.34%. In addition, the ML-2 %inh in experiment [8] amounted to 61.64%.
Turning to `Cn1cc(C2=C(c3cn(CCCCN)c4ccccc34)C(=O)NC2=O)c2ccccc21` [SJ000580952-1], in experiment [1], the M07e %inh is reported as -0.5312%. Also, the CMK %inh in experiment [2] is 13.68%. In experiment [3], the CMS %inh is 1.981%. For the same molecule, the MOLM-13 %inh in experiment [4] is recorded as 4.295%. Moreover, the U937 %inh in experiment [5] is on record as 11.79%. In addition, the CHRF288-11 %inh in experiment [6] is reported as 13.76%. In addition, the MV4-11 %inh in experiment [7] amounted to 8.937%. In experiment [8], the ML-2 %inh is on record as 4.061%.
For `CC(=O)N[C@@H](Cc1ccc(OP(=O)(O)O)cc1)C(=O)N[C@H]1CCC(=O)N2CCC[C@@H](C(=O)NC3CCc4ccccc43)N2C1=O` (stereo partly drawn) [SJ000580953-1], the M07e %inh in experiment [1] was -2.209%. For the same molecule, the CMK %inh in experiment [2] is on record as 1.012%. Moreover, the CMS %inh in experiment [3] is on record as -2.328%. In addition, in experiment [4], the MOLM-13 %inh is recorded as 0.9252%. For the same molecule, in experiment [5], the U937 %inh is recorded as -1.364%. For the same molecule, the CHRF288-11 %inh in experiment [6] was 3.338%. Moreover, the MV4-11 %inh in experiment [7] was -1.841%. Further, in experiment [8], the ML-2 %inh was determined as 0.02578%.
As to `O=C1NC(=NCCc2ccc(F)cc2)S/C1=C\c1ccc2ncccc2c1` [SJ000580954-1], in experiment [1], the M07e %inh is recorded as -2.647%. Further, the CMK %inh in experiment [2] is recorded as 4.249%. Moreover, the CMS %inh in experiment [3] is -3.568%. In experiment [4], the MOLM-13 %inh was found to be 4.197%. Further, the U937 %inh in experiment [5] worked out at 1.346%. Besides, in experiment [6], the CHRF288-11 %inh is listed as -1.783%. Besides, the MV4-11 %inh in experiment [7] was -0.3593%. Besides, the ML-2 %inh in experiment [8] is on record as 0.5359%.
For the molecule `CC(C)c1[nH]nc2c1N=C(c1ccccc1Cl)c1cc([N+](=O)[O-])ccc1N2` [SJ000580955-1], the M07e %inh in experiment [1] is on record as 0.02064%. For the same molecule, in experiment [2], the CMK %inh was 2.501%. The CMS %inh in experiment [3] is on record as -2.316%. In experiment [4], the MOLM-13 %inh is 0.5223%. The U937 %inh in experiment [5] is given as -1.286%. Besides, in experiment [6], the CHRF288-11 %inh came to 1.018%. Also, the MV4-11 %inh in experiment [7] is reported as 1.567%. Further, the ML-2 %inh in experiment [8] was -0.2118%.
As for `O=C1NC(=NCCc2cccc(Cl)c2)S/C1=C\c1ccc2ncccc2c1` [SJ000580956-1], the M07e %inh in experiment [1] is on record as 0.9407%. Moreover, in experiment [2], the CMK %inh worked out at 32.59%. In addition, the CMS %inh in experiment [3] is on record as 5.008%. The MOLM-13 %inh in experiment [4] is listed as 9.124%. Further, the U937 %inh in experiment [5] turned out to be 20%. In experiment [6], the CHRF288-11 %inh came to 2.333%. The MV4-11 %inh in experiment [7] is reported as 2.972%. Further, the ML-2 %inh in experiment [8] is reported as 10.56%.
`C[C@@H](Cn1ncnn1)Nc1ncc2cc(Oc3ccc(F)cc3F)c(=O)n(C)c2n1` [SJ000580957-1]: in experiment [1], the M07e %inh was determined as 0.2176%. The CMK %inh in experiment [2] amounted to 6.727%. Besides, the CMS %inh in experiment [3] is 0.2461%. Besides, the MOLM-13 %inh in experiment [4] is reported as 1.122%. In experiment [5], the U937 %inh was determined as 0.5561%. Also, the CHRF288-11 %inh in experiment [6] worked out at 0.5625%. Besides, in experiment [7], the MV4-11 %inh is -1.139%. The ML-2 %inh in experiment [8] is 0.7836%.
In the case of `Cn1c(=O)c(Cc2ccccc2F)cc2cnc(NC3CCOCC3)nc21` [SJ000580958-1], in experiment [1], the M07e %inh worked out at 0.7689%. Also, the CMK %inh in experiment [2] was 5.964%. For the same molecule, the CMS %inh in experiment [3] came to 0.1397%. In experiment [4], the MOLM-13 %inh stood at 5.832%. The U937 %inh in experiment [5] was determined as 8.088%. In addition, in experiment [6], the CHRF288-11 %inh is reported as 0.1529%. In addition, the MV4-11 %inh in experiment [7] is recorded as 6.415%. Also, the ML-2 %inh in experiment [8] is listed as 0.5571%.
As to `O=C1NC(=Nc2ccccc2)S/C1=C\c1ccc2ncccc2c1` [SJ000580960-1], the M07e %inh in experiment [1] is listed as -2.396%. Besides, the CMK %inh in experiment [2] is given as 5.474%. In addition, the CMS %inh in experiment [3] was -0.1285%. Moreover, in experiment [4], the MOLM-13 %inh came out at 1.819%. The U937 %inh in experiment [5] is 2.19%. The CHRF288-11 %inh in experiment [6] is recorded as -1.26%. Further, the MV4-11 %inh in experiment [7] was 2.663%. For the same molecule, in experiment [8], the ML-2 %inh stood at 0.4587%.
Turning to `O=c1c(Oc2ccc(F)cc2F)cc2cnc(NC3CCOCC3)nc2n1C1CCS(=O)(=O)CC1` [SJ000580961-1], the M07e %inh in experiment [1] is -1.798%. Further, in experiment [2], the CMK %inh worked out at 4.971%. The CMS %inh in experiment [3] is listed as -0.4155%. The MOLM-13 %inh in experiment [4] worked out at 0.9477%. Moreover, the U937 %inh in experiment [5] is recorded as 4.388%. Moreover, the CHRF288-11 %inh in experiment [6] is listed as -4.195%. The MV4-11 %inh in experiment [7] came out at 0.879%. Besides, the ML-2 %inh in experiment [8] was 0.6064%.
In the case of `O=c1c(Oc2ccc(F)cc2F)cc2cnc(NC3CCOCC3)nc2n1CCCO` [SJ000580962-1], the M07e %inh in experiment [1] is recorded as -0.6973%. Also, the CMK %inh in experiment [2] turned out to be 6.717%. Moreover, the CMS %inh in experiment [3] was found to be 2.142%. Besides, the MOLM-13 %inh in experiment [4] is given as 0.8881%. Further, the U937 %inh in experiment [5] is listed as 2.637%. Moreover, the CHRF288-11 %inh in experiment [6] was found to be 3.259%. In experiment [7], the MV4-11 %inh worked out at 3.176%. Also, the ML-2 %inh in experiment [8] is recorded as 1.08%.
